Data published in patent US20070010402A1, “Novel herbicides, usage thereof, novel thienopyrimidine derivatives, intermediates of the same, and process for production thereof” (NIHON NOHYAKU CO., LTD.,, priority 2002, published 2007).

Columns and labels:
Assay in all cases: Field foliar treatment test (Test Example 1)
Format in all cases: in vivo
Details in all cases: foliar spray at 1.0- to 2.0-leaf stage, wettable powder, active ingredient 10 g/a, 21st day from the treatment
[1] = tested on: Brassica juncea
Protocol: (§1) Alluvial soil from a field was put in a resin-made vat having an area of 200 cm^2. After fertilization, the seeds of Echinochloa crus-galli, Brassica juncea, and Ipomoea purpurea were cast on the soil and uniformly covered with the soil. Then, cultivation was continued in a greenhouse, and when the weeds to be tested reached the 1.0- to 2.0-leaf stage, the wettable powder obtained in Formulation Example 1 was diluted with water and a predetermined amount thereof was sprayed uniformly to the weeds by means of a small-sized power pressure spray to give 10 g of the active ingredient per an are. Thereafter, cultivation was further continued in the greenhouse, and the herbicidal effect was examined on the 21st day from the treatment. The results obtained are shown in Table 7 (the compound numbers in Table 7 correspond to those in Table 1 to 6). The herbicidal effect was evaluated in terms of herbicidal rate obtained from the following equation: Herbicidal rate (%)=[1−(Weight of weeds above the ground in a treated plot)/(Weight of weeds above the ground in a non-treated plot)]×100 and was expressed by herbicidal index according to the following criteria. [table]

[2] = tested on: Echinochloa crus-galli
Protocol: as §1

[3] = tested on: Ipomoea purpurea
Protocol: as §1

SMILES | Herbicidal effect Brassica juncea (herbicidal index) [1] | Herbicidal effect Echinochloa crus-galli (herbicidal index) [2] | Herbicidal effect Ipomoea purpurea (herbicidal index) [3]
CCCOc1nc(-c2ccc(F)c(C(F)(F)F)c2)c2cc(C)sc2n1 [Compound No. 6-29, 4-[4-fluoro-3-(trifluoromethyl)phenyl]-6-methyl-2-propoxythieno[2,3-d]pyrimidine] | 4 (71 to 90) | 4 (71 to 90) | 5 (91 to 100)
Cc1cc2nc(OCC(F)(F)F)nc(-c3cccc(OC(F)(F)F)c3)c2s1 [6-235] | 5 (91 to 100) | 5 (91 to 100) | 5 (91 to 100)
Cc1cc2c(-c3ccccc3C(F)(F)F)nc(OCC(F)(F)C(F)F)nc2s1 [6-249] | 5 (91 to 100) | 4 (71 to 90) | 5 (91 to 100)
C=CCCOc1nc(-c2cccc(C(F)(F)F)c2)c2cc(C)sc2n1 [6-92] | 5 (91 to 100) | 5 (91 to 100) | 4 (71 to 90)
Cc1cc2c(-c3cccc(OC(F)F)c3)nc(OCC(F)(F)C(F)F)nc2s1 [6-125] | 5 (91 to 100) | 5 (91 to 100) | 5 (91 to 100)
Cc1cc2c(-c3cccc(SC(F)(F)F)c3)nc(OCC(F)(F)F)nc2s1 [6-115] | 5 (91 to 100) | 5 (91 to 100) | 5 (91 to 100)
COCC(C)Oc1nc(-c2cccc(C(F)(F)F)c2)c2cc(C)sc2n1 (stereo not drawn) [6-142] | 4 (71 to 90) | 5 (91 to 100) | 5 (91 to 100)
CCCOc1nc(-c2cccc(OC(F)F)c2)c2cc(C)sc2n1 [6-40] | 5 (91 to 100) | 4 (71 to 90) | 5 (91 to 100)
Cc1cc2c(-c3cccc(OC(F)(F)F)c3)nc(OCC(F)F)nc2s1 [6-109] | 5 (91 to 100) | 5 (91 to 100) | 4 (71 to 90)
Cc1cc2c(-c3ccccc3OC(F)(F)F)nc(OCC(F)(F)F)nc2s1 [6-251] | 5 (91 to 100) | 5 (91 to 100) | 5 (91 to 100)
CCCOc1nc(-c2cccc(OC(F)(F)F)c2)c2cc(C)sc2n1 [6-35] | 5 (91 to 100) | 5 (91 to 100) | 5 (91 to 100)
Cc1cc2c(-c3cccc(C(F)(F)F)c3)nc(OCCF)nc2s1 [6-96] | 5 (91 to 100) | 4 (71 to 90) | 5 (91 to 100)
Cc1cccc(-c2nc(OC(C)C)nc3sc(C)cc23)c1 [6-215] | 5 (91 to 100) | 5 (91 to 100) | 5 (91 to 100)
Cc1cc2c(-c3cccc(C(F)(F)F)c3)nc(OCc3ccco3)nc2s1 [6-187] | 5 (91 to 100) | 4 (71 to 90) | 5 (91 to 100)
Cc1cc2c(Oc3cccc(OC(F)(F)F)c3)nc(-n3ccc(C(F)(F)F)n3)nc2s1 [6-202] | 4 (71 to 90) | 4 (71 to 90) | 5 (91 to 100)
CCCOc1nc(-c2cccc(SC(F)(F)F)c2)c2cc(C)sc2n1 [6-39] | 4 (71 to 90) | 5 (91 to 100) | 5 (91 to 100)

SMILES | Herbicidal effect Brassica juncea (herbicidal index) [1] | Herbicidal effect Echinochloa crus-galli (herbicidal index) [2] | Herbicidal effect Ipomoea purpurea (herbicidal index) [3]
Cc1cc2c(-c3cccc(C(F)(F)F)c3)nc(OCC(Cl)(Cl)Cl)nc2s1 [6-98] | 4 (71 to 90) | 5 (91 to 100) | 5 (91 to 100)
Cc1cc2c(-c3cccc(C(F)(F)F)c3)nc(-n3cccn3)nc2s1 [6-192] | 4 (71 to 90) | 4 (71 to 90) | 5 (91 to 100)
Cc1cc2c(-c3ccccc3C)nc(OCC(F)(F)F)nc2s1 [6-217] | 5 (91 to 100) | 4 (71 to 90) | 5 (91 to 100)
Cc1cc2c(-c3cccc(C(F)(F)F)c3)nc(OC3CCOC3)nc2s1 (stereo not drawn) [6-184] | 4 (71 to 90) | 5 (91 to 100) | 5 (91 to 100)
Cc1cc2c(-c3cccc(Br)c3)nc(OC3CCCC3)nc2s1 [6-61] | 4 (71 to 90) | 4 (71 to 90) | 4 (71 to 90)
Cc1cc2c(-c3ccc(F)c(C(F)(F)F)c3)nc(OCC(F)(F)F)nc2s1 [6-207] | 5 (91 to 100) | 5 (91 to 100) | 5 (91 to 100)
Cc1cc2c(-c3cccc(C(F)(F)F)c3)nc(OC3CCCC3)nc2s1 [6-80] | 5 (91 to 100) | 5 (91 to 100) | 5 (91 to 100)
Cc1cc2c(-c3cccc(C(F)(F)F)c3)nc(-n3cncn3)nc2s1 [6-193] | 4 (71 to 90) | 4 (71 to 90) | 5 (91 to 100)
CCCOc1nc(-c2cccc(C(F)(F)F)c2)c2cc(C)sc2n1 [6-25] | 5 (91 to 100) | 4 (71 to 90) | 5 (91 to 100)
C#CC(C)Oc1nc(-c2cccc(C(F)(F)F)c2)c2cc(C)sc2n1 (stereo not drawn) [6-90] | 5 (91 to 100) | 5 (91 to 100) | 5 (91 to 100)
Cc1cc2c(-c3cccc(C(F)(F)F)c3)nc(OCC(F)(F)F)nc2s1 [6-97] | 5 (91 to 100) | 5 (91 to 100) | 5 (91 to 100)
Cc1cc2c(-c3cccc(C(F)(F)F)c3)nc(-n3ccnc3C)nc2s1 [6-194] | 5 (91 to 100) | 4 (71 to 90) | 5 (91 to 100)
Cc1cc2c(-c3cccc(OC(F)(F)F)c3)nc(OC3CCCC3)nc2s1 [6-85] | 4 (71 to 90) | 5 (91 to 100) | 5 (91 to 100)
Cc1cc2c(-c3ccccc3OC(F)(F)F)nc(Cl)nc2s1 [5-31] | 5 (91 to 100) | 4 (71 to 90) | 5 (91 to 100)
Cc1cc2c(-c3ccc(F)c(C(F)(F)F)c3)nc(OC3CCCC3)nc2s1 [6-83] | 4 (71 to 90) | 5 (91 to 100) | 5 (91 to 100)
Cc1cc2c(-c3cccc(C)c3C)nc(OCC(F)(F)F)nc2s1 [6-245] | 5 (91 to 100) | 4 (71 to 90) | 5 (91 to 100)
